In ChEMBL document CHEMBL3813663, “Aryl morpholino triazenes inhibit cytochrome P450 1A1 and 1B1” (Bioorg Med Chem Lett, 2016) one finds IC50 and activity data, which are given here for 13 compounds.

Bounds are passed on as bounds.

CYP1A1, sequence (P04798 whole entry): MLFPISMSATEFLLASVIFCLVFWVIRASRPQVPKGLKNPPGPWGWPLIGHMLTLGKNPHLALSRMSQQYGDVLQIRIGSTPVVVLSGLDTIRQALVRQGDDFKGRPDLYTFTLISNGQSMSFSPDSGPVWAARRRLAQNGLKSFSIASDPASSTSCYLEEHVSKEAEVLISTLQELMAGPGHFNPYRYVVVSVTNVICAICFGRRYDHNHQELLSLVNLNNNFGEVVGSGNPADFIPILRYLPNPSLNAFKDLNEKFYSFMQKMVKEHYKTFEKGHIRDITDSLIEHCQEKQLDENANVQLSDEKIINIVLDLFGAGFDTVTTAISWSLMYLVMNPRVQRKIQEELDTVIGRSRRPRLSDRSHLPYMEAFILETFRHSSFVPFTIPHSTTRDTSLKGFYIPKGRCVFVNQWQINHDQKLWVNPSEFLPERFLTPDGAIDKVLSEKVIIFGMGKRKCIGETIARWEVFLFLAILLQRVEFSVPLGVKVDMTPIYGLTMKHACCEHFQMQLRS

The first series deals with Cytochrome P450 1A1 (Homo sapiens, UniProt P04798).
Cytochrome P450 1A1, sequence (P04798 whole entry): as above
Test: not given
Details: not given
The term IC50 denotes the midpoint of a concentration-inhibition curve. Low readings indicate greater potency, high ones weaker potency. As to `O=[N+]([O-])c1ccc(/N=N/N2CCOCC2)cc1`, half-maximal inhibition (IC50) required 115 µM.
The same measure, in the same setting: in the case of `Oc1ccc(/C=C/c2cc(O)cc(O)c2)cc1` [RESVERATROL] it was 34 µM.
On the same count and under the same terms, for `c1ccc(/N=N/N2CCOCC2)cc1` the value was 120 µM.
Consider `O=C(O)c1ccc(/N=N/N2CCOCC2)cc1`, for which the concentration for half-maximal inhibition (IC50) came to 167 µM.
Still for that read-out and setting: for `COc1cc(/N=N/N2CCOCC2)cc(OC)c1OC` the value was 10 µM.
The same measure, in the same setting: for `Brc1ccc(/N=N/N2CCOCC2)cc1` the value was 63 µM; for `CC(=O)c1ccc(/N=N/N2CCOCC2)cc1`, 82 µM.

The target of a further series is T1, Cytochrome P450 1B1 (Homo sapiens, UniProt Q16678).
T1 sequence (Q16678 whole entry): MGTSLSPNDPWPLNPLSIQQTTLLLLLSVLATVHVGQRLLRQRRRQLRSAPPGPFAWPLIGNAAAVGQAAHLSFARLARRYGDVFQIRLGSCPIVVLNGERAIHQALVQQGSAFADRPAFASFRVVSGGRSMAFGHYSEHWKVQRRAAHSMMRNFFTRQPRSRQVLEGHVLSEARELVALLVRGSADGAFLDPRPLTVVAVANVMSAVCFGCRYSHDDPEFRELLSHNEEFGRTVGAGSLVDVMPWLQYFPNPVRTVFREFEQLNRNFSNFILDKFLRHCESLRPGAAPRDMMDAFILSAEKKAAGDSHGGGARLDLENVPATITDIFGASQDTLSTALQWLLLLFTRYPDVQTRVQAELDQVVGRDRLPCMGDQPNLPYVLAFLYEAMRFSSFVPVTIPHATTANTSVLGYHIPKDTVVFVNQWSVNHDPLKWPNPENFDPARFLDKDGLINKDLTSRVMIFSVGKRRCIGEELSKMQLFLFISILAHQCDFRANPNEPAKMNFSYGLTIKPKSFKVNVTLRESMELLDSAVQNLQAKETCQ
Test: not given
Details: not given
For the compound `O=[N+]([O-])c1ccc(/N=N/N2CCOCC2)cc1`, the half-maximal inhibitory concentration (IC50) worked out at 2 µM. That is a single-digit micromolar value.
On the same count and under the same terms, for `Nc1ccc(C(=O)O)cc1` [AMINOBENZOIC ACID] the value was over 120 µM; for `Oc1ccc(/C=C/c2cc(O)cc(O)c2)cc1` [RESVERATROL], 55 µM.
The same measure, in the same setting: for `c1ccc(/N=N/N2CCOCC2)cc1` the value was 163 µM.
`O=C(O)c1ccc(/N=N/N2CCOCC2)cc1` yielded a half-inhibitory concentration (IC50) of 400 µM.
Turning to `COc1cc(/N=N/N2CCOCC2)cc(OC)c1OC`, the midpoint of inhibition, the IC50, lay at 18 µM.
The compound `Brc1ccc(/N=N/N2CCOCC2)cc1` gave a concentration for half-maximal inhibition (IC50) of 7 µM. This IC50 is about 2.6-fold lower than that of the compound before.

A further series addresses CYP1A1 (Homo sapiens, UniProt P04798). Nature of the series: in vitro.
Details: not given
The compound `Brc1ccc(/N=N/N2CCOCC2)cc1` yielded an activity at 2 min, 100 µM of 53%.
For the compound `C1COCCN1` [MORPHOLINE], the activity at 2 min, 100 µM is 91%.

The series is the same for the next values; noted with them: probe ethoxyresorufin (O-deethylation).
For `O=[N+]([O-])c1ccc(/N=N/N2CCOCC2)cc1`, the activity at 2 min, 100 µM stood at 79%.
On the same count and under the same terms, in the case of `Nc1ccc(C(=O)O)cc1` [AMINOBENZOIC ACID] it was 100%; in that of `COc1cc(N)cc(OC)c1OC`, 95%; in that of `Oc1ccc(/C=C/c2cc(O)cc(O)c2)cc1` [RESVERATROL], 11%.
The same measure, in the same setting: for `Nc1ccc([N+](=O)[O-])cc1` [4-NITROANILINE] the value was 100%; for `Nc1ccccc1` [ANILINE], 100%; for `Nc1ccc(Br)cc1` [4-BROMOANILINE], 100%.
The same measure, in the same setting: in the case of `c1ccc(/N=N/N2CCOCC2)cc1` it was 56%; in that of `O=C(O)c1ccc(/N=N/N2CCOCC2)cc1`, 67%; in that of `COc1cc(/N=N/N2CCOCC2)cc(OC)c1OC`, 8%.
`CC(=O)c1ccc(/N=N/N2CCOCC2)cc1` yielded an activity at 2 min, 100 µM of 70%.

The target in another series is T2, CYP1B1 (Homo sapiens, UniProt Q16678).
T2 sequence (Q16678 whole entry): T1 sequence (Q16678 whole entry)
Nature of the series: in vitro.
Details: not given
Consider `O=[N+]([O-])c1ccc(/N=N/N2CCOCC2)cc1`, for which the activity at 2 min, 100 µM is 16%.
On the same count and under the same terms, for `Oc1ccc(/C=C/c2cc(O)cc(O)c2)cc1` [RESVERATROL] the value was 56%; for `C1COCCN1` [MORPHOLINE], 100%.

The same series, now with this note: probe ethoxyresorufin (O-deethylation).
For the compound `Nc1ccc(C(=O)O)cc1` [AMINOBENZOIC ACID], the activity at 2 min, 100 µM worked out at 75%.
On the same count and under the same terms, in the case of `COc1cc(N)cc(OC)c1OC` it was 100%; in that of `Nc1ccc([N+](=O)[O-])cc1` [4-NITROANILINE], 92%; in that of `Nc1ccccc1` [ANILINE], 100%.
Same read-out and setting: for `Nc1ccc(Br)cc1` [4-BROMOANILINE] the value was 94%; for `c1ccc(/N=N/N2CCOCC2)cc1`, 74%.
Take `O=C(O)c1ccc(/N=N/N2CCOCC2)cc1`: the activity at 2 min, 100 µM was found to be 81%.
On the same count and under the same terms, in the case of `COc1cc(/N=N/N2CCOCC2)cc(OC)c1OC` it was 14%; in that of `Brc1ccc(/N=N/N2CCOCC2)cc1`, 59%.
`CC(=O)c1ccc(/N=N/N2CCOCC2)cc1` displayed an activity at 2 min, 100 µM of 100%.
